Data from ChEMBL document CHEMBL4387768, “New dual ligands for the D2 and 5-HT1A receptors from the group of 1,8-naphthyl derivatives of LCAP” (Bioorg Med Chem Lett, 2019).
pKi: −log10 of the molar value.

Assays:
Assay type in all cases: cell-based
[1] = molecular target: T1, 5-hydroxytryptamine receptor 1A (Homo sapiens, UniProt P08908); assay: Displacement of [3H]-8-OHDPAT from recombinant human 5HT1A receptor expressed in HEK293 cells measured after 1 hr by microbeta counting method
T1 sequence (P08908 whole entry): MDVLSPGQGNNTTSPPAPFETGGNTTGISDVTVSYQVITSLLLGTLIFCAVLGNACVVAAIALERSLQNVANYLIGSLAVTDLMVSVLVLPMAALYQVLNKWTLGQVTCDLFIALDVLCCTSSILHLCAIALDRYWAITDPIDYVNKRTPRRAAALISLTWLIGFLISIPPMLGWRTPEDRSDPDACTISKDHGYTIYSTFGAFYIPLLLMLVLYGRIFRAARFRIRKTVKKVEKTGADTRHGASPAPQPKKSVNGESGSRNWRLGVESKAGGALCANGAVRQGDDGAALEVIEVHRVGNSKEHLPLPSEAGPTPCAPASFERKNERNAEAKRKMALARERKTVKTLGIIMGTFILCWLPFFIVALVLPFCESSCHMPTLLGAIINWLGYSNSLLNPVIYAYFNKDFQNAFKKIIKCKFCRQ

D(2) dopamine receptor = D(2) dopamine receptor (Homo sapiens, UniProt P14416); assay: Displacement of [3H]-raclopride from recombinant human D2L receptor expressed in HEK293 cells measured after 1 hr by microbeta counting method
D(2) dopamine receptor, sequence (P14416 whole entry): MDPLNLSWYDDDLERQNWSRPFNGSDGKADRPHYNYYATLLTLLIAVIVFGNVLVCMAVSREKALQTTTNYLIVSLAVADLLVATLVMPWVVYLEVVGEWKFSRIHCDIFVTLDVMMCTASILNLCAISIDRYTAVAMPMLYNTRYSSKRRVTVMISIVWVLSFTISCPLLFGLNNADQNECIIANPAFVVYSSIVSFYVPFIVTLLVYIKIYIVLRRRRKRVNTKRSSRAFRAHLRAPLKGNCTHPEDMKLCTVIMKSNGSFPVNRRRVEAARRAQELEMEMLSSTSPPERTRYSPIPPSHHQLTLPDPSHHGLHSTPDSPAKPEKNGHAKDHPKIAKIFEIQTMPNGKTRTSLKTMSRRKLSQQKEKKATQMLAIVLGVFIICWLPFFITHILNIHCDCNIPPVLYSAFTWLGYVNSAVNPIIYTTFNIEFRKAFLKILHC

[2] = molecular target: 5-hydroxytryptamine receptor 7 (Homo sapiens, UniProt P34969); assay: Displacement of [3H]-5-CT from recombinant human 5HT7B receptor expressed in HEK293 cells measured after 1 hr by microbeta counting method
5-hydroxytryptamine receptor 7, sequence (P34969 whole entry): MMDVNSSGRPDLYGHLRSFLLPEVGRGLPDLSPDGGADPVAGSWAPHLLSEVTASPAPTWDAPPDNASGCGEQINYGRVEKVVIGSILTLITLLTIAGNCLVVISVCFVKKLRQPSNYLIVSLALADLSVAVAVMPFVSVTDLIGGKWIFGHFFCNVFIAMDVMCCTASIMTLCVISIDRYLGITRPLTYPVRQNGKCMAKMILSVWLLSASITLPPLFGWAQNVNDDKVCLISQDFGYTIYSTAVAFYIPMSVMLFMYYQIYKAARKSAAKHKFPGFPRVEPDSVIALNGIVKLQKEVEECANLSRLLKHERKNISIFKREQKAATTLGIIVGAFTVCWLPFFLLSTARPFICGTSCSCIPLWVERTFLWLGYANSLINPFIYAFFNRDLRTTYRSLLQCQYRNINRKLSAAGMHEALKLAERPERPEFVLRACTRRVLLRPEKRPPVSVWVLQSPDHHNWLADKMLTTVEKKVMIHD

[3] = molecular target: 5-hydroxytryptamine receptor 6 (Homo sapiens, UniProt P50406); assay: Displacement of [3H]-LSD from recombinant human 5HT6 receptor expressed in HEK293 cells measured after 1 hr by microbeta counting method
5-hydroxytryptamine receptor 6, sequence (P50406 whole entry): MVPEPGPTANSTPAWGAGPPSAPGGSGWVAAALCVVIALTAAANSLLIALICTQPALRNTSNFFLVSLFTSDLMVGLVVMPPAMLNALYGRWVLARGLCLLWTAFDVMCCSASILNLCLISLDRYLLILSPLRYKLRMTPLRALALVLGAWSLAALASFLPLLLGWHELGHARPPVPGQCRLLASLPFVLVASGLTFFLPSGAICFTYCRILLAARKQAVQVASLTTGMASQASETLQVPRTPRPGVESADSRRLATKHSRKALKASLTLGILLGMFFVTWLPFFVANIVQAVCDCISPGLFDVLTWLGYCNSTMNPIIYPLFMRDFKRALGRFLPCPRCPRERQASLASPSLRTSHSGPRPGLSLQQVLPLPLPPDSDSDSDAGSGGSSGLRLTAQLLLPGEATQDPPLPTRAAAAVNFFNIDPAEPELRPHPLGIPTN

[4] = molecular target: 5-hydroxytryptamine receptor 2A (Homo sapiens, UniProt P28223); assay: Displacement of [3H]-ketanserin from recombinant human 5HT2A receptor expressed in CHOK1 cells measured after 1 hr by microbeta counting method
5-hydroxytryptamine receptor 2A, sequence (P28223 whole entry): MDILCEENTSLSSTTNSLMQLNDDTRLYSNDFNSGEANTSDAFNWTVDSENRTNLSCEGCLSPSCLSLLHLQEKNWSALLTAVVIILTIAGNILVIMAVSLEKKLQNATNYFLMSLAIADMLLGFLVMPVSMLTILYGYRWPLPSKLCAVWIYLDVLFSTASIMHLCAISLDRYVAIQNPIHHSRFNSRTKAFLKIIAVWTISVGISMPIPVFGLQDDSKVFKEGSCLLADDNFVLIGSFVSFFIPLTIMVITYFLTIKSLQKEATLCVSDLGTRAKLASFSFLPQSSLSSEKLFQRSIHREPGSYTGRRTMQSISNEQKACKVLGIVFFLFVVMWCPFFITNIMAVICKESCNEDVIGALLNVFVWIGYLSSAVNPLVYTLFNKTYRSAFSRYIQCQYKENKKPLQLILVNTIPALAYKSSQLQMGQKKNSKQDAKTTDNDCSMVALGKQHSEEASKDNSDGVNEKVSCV

SMILES	pKi [1]	pKi (D(2) dopamine receptor)	pKi [2]	pKi [3]	pKi [4]
COc1ccc(N2CCN(CCCCCCN3C(=O)c4cccc5cccc3c45)CC2)cc1	6.54	6.74	5.43	5.44	5.72
COc1ccc(N2CCN(CCCCCCN3C(=O)c4cccc5cccc(c45)C3=O)CC2)cc1	5.45	4.40	3.93	5.24	4.22
O=[N+]([O-])c1ccccc1N1CCN(CCCCCCN2c3cccc4cccc(c34)S2(=O)=O)CC1	6.32	6.58	6.09	6.31	6.27
O=C1c2cccc3cccc(c23)N1CCCCCCN1CCN(c2ccccc2[N+](=O)[O-])CC1	5.02	6.37	6.16	6.02	5.40
O=C1c2cccc3cccc(c23)C(=O)N1CCCCCCN1CCN(c2ccccc2[N+](=O)[O-])CC1	6.43	6.85	6.15	5.85	5.72
O=C1c2cccc3cccc(c23)N1CCCCCCN1CCN(c2ncccn2)CC1	7.03	6.73	6.32	5.28	7.37
CCOc1ccccc1N1CCN(CCCCCCN2c3cccc4cccc(c34)S2(=O)=O)CC1	7.32	7.52	7.47	6.32	6.24
O=C1c2cccc3cccc(c23)C(=O)N1CCCCCCN1CCN(c2ccccn2)CC1	6.76	5.89	5.92	5.71	6.25

Next, values leading:

pKi [1]	pKi (D(2) dopamine receptor)	pKi [2]	pKi [3]	pKi [4]	SMILES
7.49	6.06	6.74	5.84	6.05	O=C1c2cccc3cccc(c23)N1CCCCCCN1CCN(c2ccccn2)CC1
7.66	7.09	6.92	6.00	6.65	O=C1c2cccc3cccc(c23)N1CCCCCCN1CCN(c2cccc3cccnc23)CC1
7.55	7.57	7.14	6.61	6.34	CCOc1ccccc1N1CCN(CCCCCCN2C(=O)c3cccc4cccc(c34)C2=O)CC1
7.33	6.57	6.43	6.46	6.48	COc1cccc(N2CCN(CCCCCCN3C(=O)c4cccc5cccc(c45)C3=O)CC2)c1
7.72	8.70	6.54	5.49	6.34	COc1ccccc1N1CCN(CCCCCCn2c(=O)n3c4c(cccc42)CCC3)CC1
7.33	6.94	6.44	5.77	6.19	COc1cccc(N2CCN(CCCCCCN3C(=O)c4cccc5cccc3c45)CC2)c1
7.46	6.93	6.46	6.74	6.35	O=S1(=O)c2cccc3cccc(c23)N1CCCCCCN1CCN(c2ccccn2)CC1
7.70	8.00	6.58	6.17	6.47	COc1ccccc1N1CCN(CCCCCCN2C(=O)c3cccc4cccc(c34)C2=O)CC1
7.66	7.96	7.08	5.72	6.14	CCOc1ccccc1N1CCN(CCCCCCN2C(=O)c3cccc4cccc2c34)CC1
